Like-named read-outs stand apart in the source and are kept apart here.
What was measured:
histamine-3 receptor [1] = target: T1, histamine-3 receptor (Homo sapiens, UniProt Q9Y5N1); experiment: Histamine analogue-binding inhibition test ([35S]GTPγS binding in presence of R-methylhistamine, SPA); type: biochemical; details: 20 nM R-methylhistamine, 25° C., 3 hours; read-out: IC50 (nM) to specific [35S]GTPγS binding
T1 construct: expressed in transfected cells; host or cells: HEK293 and CHO-K1 (membrane specimen)
Description: (§1) A cDNA sequence coding for a human histamine-3 receptor [see International Patent Application WO00/39164) was cloned with expression vectors pCR2.1, pEF1x (by Invitrogen) and pCI-neo (by Promega). The resulting expression vector was transfected into host cells, HEK293 and CHO-K1 (American Type Culture Collection), according to a cationic lipid process [see Proceedings of the National Academy of Sciences of the United States of America, Vol., 84, p. 7413 (1987)] to obtain histamine-3 receptor expression cells.
A membrane specimen prepared from the cells having expressed a histamine-3 receptor was incubated in an assay buffer (50 mM Tris buffer, 100 mM NaCl, 5 mM MgCl2, pH 7.4) along with a test compound, 20 nM R-methylhistamine (histamine analogue, by Sigma), 10 μM GDP (guanine-nucleotide diphosphate, by Sigma), […] [^35S] GTPγS (guanine-nucleotide triphosphate analogue, by Amersham) and SPA resin (wheatgerm agglutinin SPA beads, by Amersham) therein on a 96-well optiplate (by Packard) at 25° C. for 3 hours and then centrifuged at 3,000 rpm, and its activity was counted with Topcount (by Packard). The non-specific binding was determined in the presence of 10 μM GTPγS (by Sigma), and the 50% inhibitory concentration (IC50) of the test compound to specific N[^35S] GTPγS binding was calculated [see British Journal of Pharmacology, Vol. 135, p. 383 (2002)].

histamine-3 receptor [2] = target: T1, histamine-3 receptor; experiment: Histamine analogue-binding inhibition test ([3H]N-α-methylhistamine binding to membrane specimen); details: membrane of histamine-3 receptor expressing cells, 25° C., 2 hours; read-out: 50% inhibitory concentration (IC50) to specific N-α-methylhistamine binding
Description: as §1
A membrane specimen prepared from the cells having expressed a histamine-3 receptor was incubated in an assay buffer (50 mM Tris buffer, pH 7.4) along with a test compound and 20,000 cpm of [^3H]-α-methylhistamine (by NEN) therein at 25° C. for 2 hours, and then filtered through a glass filter GF/C. This was washed with 50 mM Tris buffer (ph 7.4), and the radioactivity on the glass filter was measured. The non-specific binding was determined in the presence of 10 μM thioperamide (by SIGAM), and the 50% inhibitory concentration (IC50) of the test compound to specific N-α-methylhistamine binding was calculated [see Molecular Pharmacology, Vol. 55, p. 1101 (1999)].

[3] = Test for internal kinetics; type: in vivo, rat; details: SD male rats, oral or intravenous administration
Protocol: A test compound was orally or intravenously administered to SD male rats (7 to 10 weeks-age, 200 to 400 g) kept away from eating and drinking overnight, and using a heparinization capillary within a predetermined period of time, about 100 μl of the blood was collected from them via their tail vein. The blood was centrifuged (4° C., 6000 rpm, 10 minutes) to collect its plasma. Ethanol (including an internal standard substance) was added to the plasma in an amount of 3 times that of the plasma, and stirred, and left statically at −20° C. for 20 minutes, and then this was centrifuged (4° C., 10,000 rpm, 10 minutes). The supernatant was analyzed through LC/MS/MS, and the plasma concentration of the compound was quantified according to a relative calibration curve method.

[4] = Brain/cerebrospinal fluid migration test; type: in vivo, rat; details: SD male rats, 2 hours after oral administration (10 mg/kg); for concentration at 2 h: rat
Description: A test compound was orally or intravenously administered to SD male rats (7 to 10 weeks-age, 200 to 400 g), and while anesthetized with ether for a predetermined period of time, the whole blood was collected from the abdominal aorta of the rats, using a heparin-processed syringe. Next, the brain skin was cut opened and a 30 G needle for dental use was pierced between the cervical vertebrae and inserted into the subarachnoid cavity. Through the tube connected with the dental 30 G needle, from 50 to 100 μl of the cerebrospinal fluid was collected into a 1-ml syringe, and then the brain was taken out. The blood sample was centrifuged (4° C., 6000 rpm, 10 minutes), and the resulting plasma was stirred with ethanol (including an internal standard substance) added thereto in an amount of 3 times the plasma. 2 ml of water was added to the brain sample and homogenized, and a part of the resulting mixture was stirred with ethanol (including an internal standard substance) added thereto in an amount of 3 times the mixture. These samples were kept at −20° C. for 20 minutes, and then centrifuged (4° C., 12,000 g, 10 minutes), and the resulting supernatant was analyzed through LC/MS/MS. According to a relative calibration curve method, the concentration of the test compound in the plasma, the brain and the cerebrospinal fluid was quantified.

T1 sequence (Q9Y5N1 whole entry): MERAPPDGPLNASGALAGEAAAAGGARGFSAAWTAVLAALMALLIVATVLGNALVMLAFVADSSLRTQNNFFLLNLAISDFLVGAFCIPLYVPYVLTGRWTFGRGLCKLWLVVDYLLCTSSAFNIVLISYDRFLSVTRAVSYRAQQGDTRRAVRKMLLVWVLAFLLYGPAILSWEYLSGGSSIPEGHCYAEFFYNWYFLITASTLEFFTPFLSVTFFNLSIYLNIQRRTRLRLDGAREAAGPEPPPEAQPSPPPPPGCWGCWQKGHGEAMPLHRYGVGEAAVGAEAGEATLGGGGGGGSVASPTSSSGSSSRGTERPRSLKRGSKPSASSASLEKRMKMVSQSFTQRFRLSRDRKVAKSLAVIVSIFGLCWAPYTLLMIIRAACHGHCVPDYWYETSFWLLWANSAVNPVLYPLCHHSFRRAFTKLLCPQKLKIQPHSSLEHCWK

SMILES | IC50 (histamine-3 receptor [1]) [nM] | other results
N#Cc1ccc(-c2cnc(OC3CCN(C4CCCC4)CC3)nc2)cc1 [Example 1, 2-(1-cyclopentylpiperidin-4-yloxy)-5-(4-cyanophenyl)pyrimidine] | 1.9 | IC50 (histamine-3 receptor [2]): 15 nM; half-value period in blood [3]: 5.3 h; bioavailability ([3]; rat, plasma): 53%; brain concentration [4]: 6.18 nmol/g; concentration at 2 h ([4]; cerebrospinal fluid, read-out: cerebrospinal fluid concentration): 128 nM; concentration at 2 h ([4]; plasma, read-out: plasma concentration): 540 nM
O=C(c1ccc(-c2cnc(OC3CCN(C4CCCC4)CC3)nc2)cc1)N1CCCC1 [Example 11, 2-(1-cyclopentylpiperidin-4-yloxy)-5-{4-(pyrrolidin-1-ylcarbonyl)phenyl}pyrimidine] | 1.2 | –
FC(F)(F)c1ccc(-c2cnc(OC3CCN(C4CCCC4)CC3)nc2)cc1 [Example 23, 2-(1-cyclopentylpiperidin-4-yloxy)-5-(4-trifluoromethylphenyl)pyrimidine] | 1.4 | –
CS(=O)(=O)c1ccc(-c2cnc(OC3CCN(C4CCCC4)CC3)nc2)cc1 [Example 37, 2-(1-cyclopentylpiperidin-4-yloxy)-5-{4-(methylsulfonyl)phenyl}pyrimidine] | 1.3 | –
c1cn2cnnc2cc1-c1cnc(OC2CCN(C3CCCC3)CC2)nc1 [Example 60, 2-(1-cyclopentylpiperidin-4-yloxy)-5-(1,2,4-triazolo[4,3,a]pyridin-7-yl)pyrimidine] | 1.2 | –
Cn1cc(-c2ccc(OC3CCN(C4CCC4)CC3)nc2)ccc1=O [Example 65, 2-(1-cyclobutylpiperidin-4-yloxy)-5-{1-methyl-1H-pyridin-2-on-5-yl}pyridine] | 0.45 | –
CC(C)N1CCC(Oc2ccc(-c3ccc(=O)n(C)c3)cn2)CC1 [Example 68, 2-(1-isopropylpiperidin-4-yloxy)-5-{1-methyl-1H-pyridin-2-on-5-yl}pyridine] | 1.4 | –

— patent US8044070B2, “Heteroaryloxy nitrogenous saturated heterocyclic derivative” (MSD K.K., priority 2003, dated 2011)
